# Target: T1, adenosine 3 receptor (ADORA3) (Homo sapiens, UniProt P0DMS8)
# T1 construct: recombinant human ADORA3 (Abcam)
# T1 sequence (P0DMS8 1-318): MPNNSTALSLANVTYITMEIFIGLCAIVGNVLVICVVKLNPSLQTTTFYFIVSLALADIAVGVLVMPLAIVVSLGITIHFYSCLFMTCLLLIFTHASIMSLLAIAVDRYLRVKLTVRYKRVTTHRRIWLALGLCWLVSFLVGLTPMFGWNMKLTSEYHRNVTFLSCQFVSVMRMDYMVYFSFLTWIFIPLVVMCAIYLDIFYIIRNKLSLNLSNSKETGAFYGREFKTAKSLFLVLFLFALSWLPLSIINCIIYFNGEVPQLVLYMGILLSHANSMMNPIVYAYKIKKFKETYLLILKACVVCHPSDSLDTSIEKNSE
# Experiment: ELISA-based binding inhibition with recombinant human ADORA3 on anti-ADORA3 antibody-coated wells; Ki calculated from IC50 ([…])
structure (smiles),measurement,value
"CC#CCn1c(N2CCC[C@@H](N)C2)nc2c1c(=O)n(Cc1nc(C)c3ccccc3n1)c(=O)n2C [LIN, linagliptin]",Ki,37.7 nM

# From publication PMC6010121, “Structural re-positioning, in silico molecular modelling, oxidative degradation, and biological screening of linagliptin as adenosine 3 receptor (ADORA3) modulators targeting hepatocellular carcinoma” (Journal of Enzyme Inhibition and Medicinal Chemistry, 2018)
